# Literature values as cited in patent US20260199282A1, “METHODS AND COMPOSITIONS FOR IMPROVING DRIVING PERFORMANCE” (priority 2022, published 2026).
# Test system: patients with narcolepsy or idiopathic hypersomnia
# Settings: modafinil 400 mg/day; ~1.5 hours post-dose; cited from earlier work
smiles,measurement,value
NC(=O)C[S+]([O-])C(c1ccccc1)c1ccccc1 (stereo not shown) [modafinil],mean SDLP,23.6±0.6 cm
